Here are results for 7 molecules from patent US4200645A, “Pyrrole derivatives” (Beecham Group Limited, priority 1977, dated 1980).

Where two headings read alike, the source gives them in different places.

Data set [1] deals with phenylquinone induced writhing. In words: phenylquinone induced writhing test for analgesic activity. Type of data set: in vivo. Particulars: oral, mice; for ED50: Mus musculus. An excerpt: a. When tested on a conventional phenylquinone induced writhing test for analgesic activity, the compound of Example 1 and tolmetin produced the following ED50 values when administered orally to mice: […]

The conditions of data set [2]: in vivo.
For data set [3] the following is noted: J. Pharmacol. Exptl. Therap. 1973, 185, 127-138; cited from earlier work.
The subject of another data set is stomachs. In words: gastric erosion test after oral dosing. Type of data set: in vivo, rats. Particulars: for No. of Animals Showing Erosions: groups of 10 rats, 4 hour contact time. The procedure:
b. Groups of 10 rats were starved overnight and then dosed orally with the test compound suspended in 0.7% methylcellulose. After a 4 hour contact time the animals were killed and the stomachs removed, inflated with 0.9% saline, cut open after 30 minutes and examined for erosions. The following results, expressed as the number of animals in each group showing damage, were obtained: […]

The subject of data set [4] is carrageenin induced oedema. In words: carrageenin induced oedema test for anti-inflammatory activity. Type of data set: in vivo. Particulars: Rattus norvegicus; per oral in rats; read-out: dose at which active (anti-inflammatory). As for the experimental part:
c. When tested on a conventional carrageenin induced oedema test foranti-inflammatory activity, the compound of Example 1 was classed as active at 10 mg/kg per oral in rats (as compared to about 5 mg/kg for tolmetin).

A short description of data set [5]: overt toxic effects during testing (Demonstration 2). Type of data set: in vivo. An excerpt: (§1) When tested on a conventional cotton pellet induced granuloma test the results shown hereafter were obtained. In these tests hydrocortisone (HC) was used as a positive control.
Data set [6] relates to cotton pellet induced granuloma. In words: cotton pellet induced granuloma test. Type of data set: in vivo.
From the text: as §1

The test system of another data set is rats. In words: toxicity observations during testing in rats. Type of data set: in vivo. Conditions: up to 100 mg/kg per day for 6 days.

Regarding `Cc1ccc(C(=O)c2ccc(CC(=O)O)n2C)cc1` [Tolmetin], the ED50 in data set [1] (Test A, read-out: ED50, Test A) amounted to 4.3 mg/kg; in data set [1] (Test B, read-out: ED50, Test B) it was 2.3 mg/kg. Also, the gastric irritancy result in data set [2] was “causes gastric irritancy in test animals at doses not greatly exceeding the therapeutic dose”. Moreover, the anti-inflammatory activity entry in data set [3] is on record as “possess anti-inflammatory activity”. Moreover, the “No. of Animals Showing Erosions” value is reported as 2 No. of Animals in the data set with stomachs (10 mg/kg oral), 6 No. of Animals with stomachs (30 mg/kg oral) and 10 No. of Animals in the data set with stomachs (90 mg/kg oral). Also, in the data set with stomachs (oral, rats, "probably at least"), the “gastric irritancy relative to the compound of Example 1” value is on record as “at least 10 times”. For the same molecule, the minimal effective dose in data set [4] was ~5 mg/kg.
On to `Cc1ccc(C(=O)c2ccc(CCC3(C)OCCO3)n2C)cc1` [Example 7, 2-Methyl-2-[2-(1-methyl-5-p-toluoyl-2-pyrryl)ethyl]-1,3-dioxolane], for which, in data set [5] (during testing), the drug-induced lethalities entry was “no drug-induced lethalities were observed” and the overt toxic effects result is “not found to exhibit any overt toxic effects”. In data set [5] (in vivo), the body weight gain result is on record as “no reduction in body weight gain was observed” and the thymus weight result is reported as “no change in thymus weight was observed”. Further, the “Inhibition (cotton pellet granuloma)” value in data set [6] (50 mg/kg) is 43%.
With `CC(=O)CCc1ccc(C(=O)c2ccc(Cl)cc2)n1C` [Example 3, 4-(1-Methyl-5-p-chlorobenzoyl-2-pyrryl)butan-2-one], in data set [5] (during testing), the drug-induced lethalities result was “no drug-induced lethalities were observed” and the overt toxic effects entry is “not found to exhibit any overt toxic effects”. Moreover, in data set [5] (in vivo), the body weight gain result is “no reduction in body weight gain was observed” and the thymus weight entry is given as “no change in thymus weight was observed”. Further, the “Inhibition (cotton pellet granuloma)” value in data set [6] (10 mg/kg) was 42%.
Take `CC(=O)OC(C)CCc1ccc(C(=O)c2ccc(C)cc2)n1C` (centres unmarked) [Example 6, 2-Acetoxy-4-(1-methyl-5-p-toluoyl-2-pyrryl)butane]: in data set [5] (during testing), the drug-induced lethalities result is “no drug-induced lethalities were observed” and the overt toxic effects result is “not found to exhibit any overt toxic effects”. Further, in data set [5] (in vivo), the body weight gain result was “no reduction in body weight gain was observed” and the thymus weight entry is listed as “no change in thymus weight was observed”. For the same molecule, the “Inhibition (cotton pellet granuloma)” value in data set [6] (50 mg/kg) stood at 34%.
Consider `CC(=O)CCc1ccc(C(=O)c2ccc(C)cc2)n1C` [Example 1, 4-(1-Methyl-5-p-toluoyl-2-pyrryl)butan-2-one], for which, in the data set on rats, the drug-induced lethalities entry is on record as “No drug-induced lethalities have been observed”. Besides, the ED50 amounted to 6.7 mg/kg in data set [1] (Test A, read-out: ED50, Test A) and 5.3 mg/kg in data set [1] (Test B, read-out: ED50, Test B). In addition, the “analgesic potency relative to tolmetin” value in data set [1] (from ED50 values) is “about half as potent as tolmetin”. Further, the figures for the “No. of Animals Showing Erosions” value with stomachs (30 mg/kg oral), in the data set on stomachs (90 mg/kg oral) and in the data set on stomachs (270 mg/kg oral) were 0 No. of Animals, 1 No. of Animals and 1 No. of Animals, respectively. Also, the minimal effective dose in data set [4] was 10 mg/kg.
Turning to `C[C@]12CCC(=O)C=C1CC[C@@H]1[C@@H]2[C@@H](O)C[C@@]2(C)[C@H]1CC[C@]2(O)C(=O)CO` [HC, hydrocortisone, reference compound], the “Inhibition (cotton pellet granuloma)” value in data set [6] (10 mg/kg) was found to be 43%.
Turning to `CC(=O)CCc1ccc(C(=O)c2cccs2)n1C` [Example 4, 4-(1-Methyl-5-thien-2'-oyl-2-pyrryl)butan-2-one], in data set [5] (during testing), the drug-induced lethalities entry is listed as “no drug-induced lethalities were observed”. For the same molecule, in data set [5] (in vivo), the body weight gain result is “no reduction in body weight gain was observed”, the overt toxic effects result is “not found to exhibit any overt toxic effects” and the thymus weight entry was “no change in thymus weight was observed”. For the same molecule, the “Inhibition (cotton pellet granuloma)” value in data set [6] (10 mg/kg) came out at 24%.
